For 16 compounds, CC50 and IC50 results are on record in patent US9108999B2, “2′, 4′-difluoro-2′-methyl substituted nucleoside derivatives as inhibitors of HCV RNA replication” (priority 2011, dated 2015).

Each structure is given as a SMILES string. Like-named read-outs stand apart in the source and are kept apart here.

A short description of series [1]: in vitro. As to conditions: human.
Series [2] concerns genotype 1b replicon construct NK5.1 (HCV subgenomic RNA) in Huh7 cell line 2209-23. The series can be described thus: microbe, parasite or virus in culture. It is filed as cell-based, Hepatitis C Virus. As to conditions: read-out: HCV Replicon IC50. In general terms: Replicon systems follow genome replication, usually without infectious particles.
In series [3] the test system is HCV replicon cells (2209-23). As to conditions: read-out: WST-1 Cytotoxicity CC50; replicon cells 2209-23, three days incubation, WST-1 OD 450 nm. (In general: Formazan colour is commonly taken as a measure of viable cells.)
The mark [4] stands for this setting: Hepatitis C virus, Huh-7, 72 h, Huh7 replicon cells 2209-23, three days incubation, Renilla luciferase readout.
Setting [5] is: Huh7 replicon cells 2209-23, three days incubation, Renilla luciferase readout.

In the case of `CC(C)OC(=O)[C@H](C)NP(=O)(OC[C@@]1(F)O[C@@H](n2ccc(=O)[nH]c2=O)[C@](C)(F)[C@@H]1O)Oc1ccccc1` (stereo partly drawn) [Compound I-1, (S)-2-{[(2S,3S,4R,5R)-5-(2,4-Dioxo-3,4-dihydro-2H-pyrimidin-1-yl)-2,4-difluoro-3-hydroxy-4-methyl-tetrahydro-furan-2-ylmethoxy]-phenoxy-phosphorylamino}-propionic acid isopropyl ester], in series [1], the CC50 at 3 days was > 100 µM.
Broadly, the IC50 is the concentration that gives 50% inhibition. Turning to `CC(C)OC(=O)[C@H](C)NP(=O)(OC[C@@]1(F)O[C@@H](n2ccc(=O)[nH]c2=O)[C@](C)(F)[C@@H]1O)Oc1cccc2ccccc12` (stereo partly drawn) [Compound I-2, (S)-2-[[(2S,3S,4R,5R)-5-(2,4-Dioxo-3,4-dihydro-2H-pyrimidin-1-yl)-2,4-difluoro-3-hydroxy-4-methyl-tetrahydro-furan-2-ylmethoxy]-(naphthalen-1-yloxy)-phosphorylamino]-propionic acid isopropyl ester], in series [1], the CC50 at 3 days is > 100 µM. Moreover, the IC50 in series [2] (setting [4]) came to 0.115 µM.
As for `CC(C)OC(=O)[C@H](C)NP(=O)(OC[C@@]1(F)O[C@@H](n2ccc(=O)[nH]c2=O)[C@](C)(F)[C@@H]1O)Oc1ccc2ccccc2c1` (stereo partly drawn) [Compound I-3, (S)-2-[[(2S,3S,4R,5R)-5-(2,4-Dioxo-3,4-dihydro-2H-pyrimidin-1-yl)-2,4-difluoro-3-hydroxy-4-methyl-tetrahydro-furan-2-ylmethoxy]-(naphthalen-2-yloxy)-phosphorylamino]-propionic acid isopropyl ester], the CC50 at 3 days in series [1] was > 100 µM.
For `CC(C)OC(=O)[C@H](C)NP(=O)(OC[C@@]1(F)O[C@@H](n2ccc(=O)[nH]c2=O)[C@](C)(F)[C@@H]1OP(=O)(N[C@@H](C)C(=O)OC(C)C)Oc1ccc2ccccc2c1)Oc1ccc2ccccc2c1` (stereo partly drawn) [Compound I-4, (S)-2-[[(2S,3S,4R,5R)-5-(2,4-dioxo-3,4-dihydro-2H-pyrimidin-1-yl)-2,4-difluoro-3-[((S)-1-isopropoxycarbonyl-ethylamino)-(naphthalen-2-yloxy)-phosphoryloxy]-4-methyl-tetrahydro-furan-2-ylmethoxy]-(naphthalen-2-yloxy)-phosphorylamino]-propionic acid isopropyl ester], in series [1], the CC50 at 3 days is > 100 µM. The IC50 in series [2] (Hepatitis C virus, Huh-7, 72 h) is 7.19 µM.
`CCC(=O)O[C@H]1[C@@](C)(F)[C@H](n2ccc(=O)[nH]c2=O)O[C@]1(F)COP(=O)(N[C@@H](C)C(=O)OC(C)C)Oc1cccc2ccccc12` (stereo partly drawn) [Compound I-5, (S)-2-[[(2S,3S,4R,5R)-5-(2,4-Dioxo-3,4-dihydro-2H-pyrimidin-1-yl)-2,4-difluoro-4-methyl-3-propionyloxy-tetrahydro-furan-2-ylmethoxy]-(naphthalen-1-yloxy)-phosphorylamino]-propionic acid isopropyl ester] came in with a CC50 at 3 days in series [1] of 67.8 µM. In series [2] (setting [4]), the IC50 is 0.151 µM.
Consider `CC(C)OC(=O)[C@H](C)N[P@](=O)(OC[C@@]1(F)O[C@@H](n2ccc(=O)[nH]c2=O)[C@](C)(F)[C@@H]1O)Oc1ccc2ccccc2c1` [Compound I-6], for which the CC50 at 3 days in series [1] was > 100 µM. In series [2] (Hepatitis C virus, Huh-7, 72 h), the IC50 stood at 0.0537 µM.
For `CC(C)OC(=O)[C@H](C)N[P@@](=O)(OC[C@@]1(F)O[C@@H](n2ccc(=O)[nH]c2=O)[C@](C)(F)[C@@H]1O)Oc1ccc2ccccc2c1` [Compound I-7], the concentration for half-maximal inhibition (IC50) in series [2] (setting [5]) is 0.202 µM. The CC50 in series [3] was > 100 µM.
For `CC(C)OC(=O)[C@H](C)N[P@@](=O)(OC[C@@]1(F)O[C@@H](n2ccc(=O)[nH]c2=O)[C@](C)(F)[C@@H]1O)Oc1cccc2ccccc12` [Compound I-8, (S)-2-[(R)-[(2S,3S,4R,5R)-5-(2,4-Dioxo-3,4-dihydro-2H-pyrimidin-1-yl)-2,4-difluoro-3-hydroxy-4-methyl-tetrahydro-furan-2-ylmethoxy]-(naphthalen-1-yloxy)-phosphorylamino]-propionic acid isopropyl ester], in that order: 1.03 µM and > 100 µM.
Turning to `CC(C)OC(=O)[C@H](C)N[P@](=O)(OC[C@@]1(F)O[C@@H](n2ccc(=O)[nH]c2=O)[C@](C)(F)[C@@H]1O)Oc1cccc2ccccc12` [Compound I-9, (S)-2-[(S)-[(2S,3S,4R,5R)-5-(2,4-Dioxo-3,4-dihydro-2H-pyrimidin-1-yl)-2,4-difluoro-3-hydroxy-4-methyl-tetrahydro-furan-2-ylmethoxy]-(naphthalen-1-yloxy)-phosphorylamino]-propionic acid isopropyl ester], the CC50 at 3 days in series [1] is > 100 µM. In series [2] (setting [4]), the IC50 turned out to be 0.0602 µM.
For `CC(C)OC(=O)[C@H](C)N[P@](=O)(OC[C@@]1(F)O[C@@H](n2ccc(=O)[nH]c2=O)[C@](C)(F)[C@@H]1O)Oc1ccccc1` [Compound I-10, (S)-2-{(S)-[(2S,3S,4R,5R)-5-(2,4-Dioxo-3,4-dihydro-2H-pyrimidin-1-yl)-2,4-difluoro-3-hydroxy-4-methyl-tetrahydro-furan-2-ylmethoxy]-phenoxy-phosphorylamino}-propionic acid isopropyl ester], in that order: > 100 µM and 0.171 µM.
For `CC(C)OC(=O)[C@H](C)N[P@@](=O)(OC[C@@]1(F)O[C@@H](n2ccc(=O)[nH]c2=O)[C@](C)(F)[C@@H]1O)Oc1ccccc1` [Compound I-11, (S)-2-{(R)-[(2S,3S,4R,5R)-5-(2,4-Dioxo-3,4-dihydro-2H-pyrimidin-1-yl)-2,4-difluoro-3-hydroxy-4-methyl-tetrahydro-furan-2-ylmethoxy]-phenoxy-phosphorylamino}-propionic acid isopropyl ester], in that order: 95.6 µM and 1.31 µM.
For `CC(C)OC(=O)[C@H](C)N[P@](=O)(OC[C@@]1(F)O[C@@H](n2cc(Br)c(=O)[nH]c2=O)[C@](C)(F)[C@@H]1O)Oc1cccc2ccccc12` [Compound I-12, (S)-2-[(S)-[(2S,3S,4R,5R)-5-(5-Bromo-2,4-dioxo-3,4-dihydro-2H-pyrimidin-1-yl)-2,4-difluoro-3-hydroxy-4-methyl-tetrahydro-furan-2-ylmethoxy]-(naphthalen-1-yloxy)-phosphorylamino]-propionic acid isopropyl ester], in that order: 34.8 µM and 17.4 µM.
For the compound `CC(C)OC(=O)[C@H](C)N[P@](=O)(OC[C@@]1(F)O[C@@H](n2cc(Br)c(=O)[nH]c2=O)[C@](C)(F)[C@@H]1O)Oc1ccc2ccccc2c1` [Compound I-13], the CC50 at 3 days in series [1] is > 100 µM. Moreover, the IC50 in series [2] (Hepatitis C virus, Huh-7, 72 h) stood at 38.5 µM.
For `CC(C)OC(=O)[C@H](C)N[P@@](=O)(OC[C@@]1(F)O[C@@H](n2cc(Br)c(=O)[nH]c2=O)[C@](C)(F)[C@@H]1O)Oc1cccc2ccccc12` [Compound I-14, (S)-2-[(R)-[(2S,3S,4R,5R)-5-(5-Bromo-2,4-dioxo-3,4-dihydro-2H-pyrimidin-1-yl)-2,4-difluoro-3-hydroxy-4-methyl-tetrahydro-furan-2-ylmethoxy]-(naphthalen-1-yloxy)-phosphorylamino]-propionic acid isopropyl ester], the IC50 in series [2] (setting [5]) stood at 9.64 µM. In addition, in series [3], the CC50 came out at 50.8 µM.
Taken in the same sequence, the figures for `CC(C)OC(=O)[C@H](C)N[P@@](=O)(OC[C@@]1(F)O[C@@H](n2cc(Br)c(=O)[nH]c2=O)[C@](C)(F)[C@@H]1O)Oc1ccc2ccccc2c1` [Compound I-15] were 13.2 µM and 38.5 µM.
Take `CC(C)OC(=O)[C@H](C)NP(=O)(OC[C@@]1(F)O[C@@H](n2cc(Br)c(=O)[nH]c2=O)[C@](C)(F)[C@@H]1O)Oc1ccc2ccccc2c1` (stereo partly drawn) [Compound I-16, (S)-2-[[(2S,3S,4R,5R)-5-(5-Bromo-2,4-dioxo-3,4-dihydro-2H-pyrimidin-1-yl)-2,4-difluoro-3-hydroxy-4-methyl-tetrahydro-furan-2-ylmethoxy]-(naphthalen-2-yloxy)-phosphorylamino]-propionic acid isopropyl ester]: the CC50 at 3 days in series [1] was > 100 µM. For the same compound, the IC50 in series [2] (Hepatitis C virus, Huh-7, 72 h) worked out at 77.6 µM.
